# Laboratory results as given in patent US6656956B2, “Benzimidazole derivatives, processes for preparing them and their use as pharmaceutical compositions” (Boehringer Ingelheim Pharma KG, priority 2001, dated 2003).
# Where a name gives a salt, the structure may show the parent alone.
# Molecular target: T1, rh beta tryptase (Homo sapiens, UniProt Q15661)
# T1 construct: purchased Promega
# Test: tryptase inhibition in vitro test (cleavage of N-p-tosyl-Gly-Pro-Lys-para-nitroaniline, p-nitroaniline measured at 405 nm)
# Assay type: biochemical
# Conditions: rh beta tryptase 0.91 U/ml, substrate 0.6 mM, Tris HCl buffer with calcium and heparin, pH 7.4, 37° C., 5 minutes incubation; read-out: Tryptase-inhibiting activity
# Procedure: The compounds according to the invention are characterised by their tryptase-inhibiting activity. This ability to inhibit tryptase was investigated using the test described below.
# The measurement is carried out in Tris HCl buffer (100 mM), which additionally contains calcium (5 mM) and heparin ([…]), at pH 7.4. The standard used is rh beta tryptase which may be obtained commercially from Promega, for example. The substrate used is N-p-tosyl-Gly-Pro-Lys-para-nitroaniline in a concentration of 0.6 mM. The substrate is digested with tryptase to form p-nitroaniline which can be measured at 405 nm. Usually, an incubation period of 5 minutes and an incubation temperature of 37° C. are chosen. The enzyme activity used is 0.91 U/ml. The measurements are carried out in an Autoanalyser (Cobas Bio) made by Hofmann LaRoche. The potential inhibitory substances are used in concentrations of 10 μM in the screening, the inhibition of the tryptase being given in percent. The IC50 is determined at over 70% inhibition (concentration at which 50% of the enzyme activity is inhibited). After 5 minutes' pre-incubation of the potential inhibitory substances, the substrate is added to start the reaction, the formation of p-nitroaniline being taken as a measurement of the enzyme activity after 5 minutes, after testing the linearity.
# T1 sequence (Q15661 31-275): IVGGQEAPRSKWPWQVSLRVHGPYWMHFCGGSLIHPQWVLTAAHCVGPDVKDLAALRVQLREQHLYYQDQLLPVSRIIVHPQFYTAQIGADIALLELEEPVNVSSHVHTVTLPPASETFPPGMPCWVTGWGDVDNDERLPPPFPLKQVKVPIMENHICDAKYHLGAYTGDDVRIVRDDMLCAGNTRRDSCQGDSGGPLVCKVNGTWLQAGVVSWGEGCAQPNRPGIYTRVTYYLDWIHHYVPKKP
row,Compound,IC50
1,"N-{2-[2-(4-Amidinophenyl)-ethyl]-1-methyl-benzimidazol-5- yl}-N-[ethanecarboxylic acid]-2-[4-(2-pyridylamino)-piperid- 1-yl]-acetamide, dihydrochloride [Example 54]",4 to 30 nM
2,"CN(C(=O)CN1CCC(N(C)c2ccc3ccccc3c2)CC1)c1ccc2c(c1)nc(CCc1ccc(C(=N)N)cc1)n2C [Example 34, N-{2-[2-(4-Amidinophenyl)-ethyl]-1-methyl-benzimidazol-5-yl}-N-methyl-2-[4-(2-naphthyl-N-methylamino)-piperid-1-yl]-acetamide, dihydrochloride]",4 to 30 nM
3,"Cn1c(CCc2ccc(C(=N)N)cc2)nc2cc(N(Cc3cccc4ccccc34)C(=O)CN3CCC(Nc4ccc5ccccc5c4)CC3)ccc21 [Example 22, N-{2-[2-(4-Amidinophenyl)-ethyl]-1-methyl-benzimidazol-5-yl}-N-[naphth-1-ylmethyl]-2-[4-(2-naphthylamino)-piperid-1-yl]-acetamide, dihydrochloride]",0.5 to 3 nM
4,"CN(C)CCCN(C)C(=O)Nc1ccc2c(c1)nc(CCc1ccc(C(=N)N)cc1)n2C [Example 81, N-{2-[2-(4-Amidinophenyl)-ethyl]-1-methyl-benzimidazol-5-yl}-N′-methyl-N′-(3-dimethylaminopropyl)-urea, hydrochloride]",31 to 1000 nM
5,"Cn1c(CCc2ccc(C(=N)N)cc2)nc2cc(N(Cc3ccccc3)C(=O)CN3CCC(Nc4ccccc4Cl)CC3)ccc21 [Example 58, N-{2-[2-(4-Amidinophenyl)-ethyl]-1-methyl-benzimidazol-5-yl}-N-benzyl-2-[4-(2-chlorophenylamino)-piperid-1-yl]-acetamide, dihydrochloride]",0.5 to 3 nM
6,"CN(C(=O)CN1CCC(Nc2ccc(F)cc2Cl)CC1)c1ccc2c(c1)nc(CCc1ccc(C(=N)N)cc1)n2C [Example 33, N-{2-[2-(4-Amidinophenyl)-ethyl]-1-methyl-benzimidazol-5-yl}-N-methyl-2-[4-(2-chloro-4-fluorophenylamino)-piperid-1-yl]-acetamide, dihydrochloride]",0.5 to 3 nM
7,"CN(C(=O)CN1CCC(Nc2ccc(C(F)(F)F)cc2Br)CC1)c1ccc2c(c1)nc(CCc1ccc(C(=N)N)cc1)n2C [Example 67, N-{2-[2-(4-Amidinophenyl)-ethyl]-1-methyl-benzimidazol-5-yl}-N-methyl-2-[4-(2-bromo-4-trifluoromethylamino)-piperid-1-yl]-acetamide, dihydrochloride]",4 to 30 nM
8,"Cn1c(CCc2ccc(C(=N)N)cc2)nc2cc(N(Cc3cccc4ccccc34)C(=O)CN3CCC(Nc4ccc(Cl)cc4)CC3)ccc21 [Example 10, N-{2-[2-(4-Amidinophenyl)-ethyl]-1-methyl-benzimidazol-5-yl}-N-[naphth-1-ylmethyl]-2-[4-(4-chlorophenylamino)-piperid-1-yl]-acetamide, dihydrochloride]",0.5 to 3 nM
9,"Cn1c(CCc2ccc(C(=N)N)cc2)nc2cc(N(Cc3cccc([N+](=O)[O-])c3)C(=O)CN3CCC(Nc4ccccn4)CC3)ccc21 [Example 50, N-{2-[2-(4-Amidinophenyl)-ethyl]-1-methyl-benzimidazol-5-yl}-N-[3-nitrophenylmethyl]-2-[4-(2-pyridylamino)-piperid-1-yl]-acetamide, dihydrochloride]",4 to 30 nM

# Results, then the compound that gave them:
row,IC50,Compound
1,31 to 1000 nM,"CC(C)c1ccc(NC2CCN(CC(=O)N(C)c3ccc4c(c3)nc(CCc3ccc(C(=N)N)cc3)n4C)CC2)c(Br)c1 [Example 68, N-{2-[2-(4-Amidinophenyl)-ethyl]-1-methyl-benzimidazol-5-yl}-N-methyl-2-[4-(2-bromo-4-isopropylamino)-piperid-1-yl]-acetamide, dihydrochloride]"
2,31 to 1000 nM,"Cn1c(CCc2ccc(C(=N)N)cc2)nc2cc(NC(=O)N3CCC(Nc4ccccn4)CC3)ccc21 [Example 82, N-{2-[2-(4-Amidinophenyl)-ethyl]-1-methyl-benzimidazol-5-yl}-N′-[4-(2-pyridyl)-amino]-piperid-1-ine urea, hydrochloride]"
3,4 to 30 nM,"CN(C(=O)CN1CCC(Nc2ccccc2C(C)(C)C)CC1)c1ccc2c(c1)nc(CCc1ccc(C(=N)N)cc1)n2C [Example 64, dihydrochloride]"
4,0.5 to 3 nM,"CN(C(=O)CN1CCC(Nc2ccc3ccccc3c2)CC1)c1ccc2c(c1)nc(CCc1ccc(C(=N)N)cc1)n2C [Example 30, N-{2-[2-(4-Amidinophenyl)-ethyl]-1-methyl-benzimidazol-5-yl}-N-methyl-2-[4-(2-naphthylamino)-piperid-1-yl]-acetamide, dihydrochloride]"
5,0.5 to 3 nM,"CN(C(=O)CN1CCC(Nc2ccc(Cl)c(Cl)c2)CC1)c1ccc2c(c1)nc(CCc1ccc(C(=N)N)cc1)n2C [Example 107, N-{2-[2-(4-Amidinophenyl)-ethyl]-1-methyl-benzimidazol-5-yl}-N-methyl-2-[4-(3,4-dichlorophenylamino)-piperid-1-yl]-acetamide, dihydrochloride]"
6,4 to 30 nM,"Cc1ccccc1NC1CCN(CC(=O)N(C)c2ccc3c(c2)nc(CCc2ccc(C(=N)N)cc2)n3C)CC1 [Example 63, dihydrochloride]"
7,4 to 30 nM,"Cn1c(CCc2ccc(C(=N)N)cc2)nc2cc(N(Cc3cccc4ccccc34)C(=O)CN3CCC(N)CC3)ccc21 [Example 15, N-{2-[2-(4-Amidinophenyl)-ethyl]-1-methyl-benzimidazol-5-yl}-N-[naphth-1-ylmethyl]-2-[4-amino-piperid-1-yl]-acetamide, trihydrochloride]"
8,4 to 30 nM,"Cn1c(CCc2ccc(C(=N)N)cc2)nc2cc(N(Cc3cccc4ccccc34)C(=O)CN3CCC(Cc4ccccc4)CC3)ccc21 [Example 9, N-{2-[2-(4-Amidinophenyl)-ethyl]-1-methyl-benzimidazol-5-yl}-N-[naphth-1-ylmethyl]-2-[4-(benzyl)-piperid-1-yl]-acetamide, dihydrochloride]"
9,0.5 to 3 nM,"CN(C(=O)CN1CCC(Nc2ccc(Cl)cc2Br)CC1)c1ccc2c(c1)nc(CCc1ccc(C(=N)N)cc1)n2C [Example 65, N-{2-[2-(4-Amidinophenyl)-ethyl]-1-methyl-benzimidazol-5-yl}-N-methyl-2-[4-(2-bromo-4-chloroamino)-piperid-1-yl]-acetamide, dihydrochloride]"
10,4 to 30 nM,"CN(C(=O)CN1CCC(Nc2ccccn2)CC1)c1ccc2c(c1)nc(CCc1ccc(C(=N)N)cc1)n2C [Example 28, N-{2-[2-(4-Amidinophenyl)-ethyl]-1-methyl-benzimidazol-5-yl}-N-methyl-2-[4-(2-pyridylamino)-piperid-1-yl]-acetamide, dihydrochloride]"
11,4 to 30 nM,"Cn1c(CCc2ccc(C(=N)N)cc2)nc2cc(N(Cc3cccc4ccccc34)C(=O)CN3CCC(NC(=O)c4ccccn4)CC3)ccc21 [Example 7, N-{2-[2-(4-Amidinophenyl)-ethyl]-1-methyl-benzimidazol-5-yl}-N-[naphth-1-ylmethyl]-2-[4-(2-pyridylcarboxylic acid amide)-piperid-1-yl]-acetamide, dihydrochloride]"
12,0.5 to 3 nM,"CN(C(=O)CN1CCC(Nc2ccc(Cl)cc2)CC1)c1ccc2c(c1)nc(CCc1ccc(C(=N)N)cc1)n2C [Example 105, N-{2-[2-(4-Amidinophenyl)-ethyl]-1-methyl-benzimidazol-5-yl}-N-methyl-2-[4-(4-chlorophenylamino)-piperid-1-yl]-acetamide, dihydrochloride]"
